Peptide text beside a SMILES is read from it.
Columns and labels:
[1] = tested on: 3T3-L1 Adipocytes; test: Free fatty acid levels in cultured mouse 3T3-L1 adipocytes, isoproterenol stimulated (Example 2); format: cell-based; details: test peptides 25 μM; isoproterenol 1 nM
In short: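 Release of free fatty acids, read at 540 nm, was stimulated with 1 nM isoproterenol for 3 h in mouse 3T3-L1 adipocytes (12–17 days of differentiation). Cells were pre-exposed to 25 μM peptide for 18–20 h plus 1 h, with peptide kept in during stimulation. Values are background-subtracted and normalised to isoproterenol alone.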

[2] = tested on: Diet Induced Obese (DIO) mice; test: Body weight, blood glucose and fat mass in Diet Induced Obese mice, 10 days (Example 6); format: in vivo, Male C57BL/6 mice; details: male DIO mice; 10 days twice daily intraperitoneal 15 mg/kg; N = 8; mean
Procedure: Animals were randomized to treatment groups based on blood glucose levels and body weight. The peptides of the invention were administered to two groups of male DIG mice once or twice daily by subcutaneous or intraperitoneal injection at a dose of 15 mg/kg/dose for 10 days (N=8 animals per treatment group). An additional group of male DIG mice (n=8) received vehicle (water or saline) alone. Body weight, blood glucose levels and food intake were monitored. Body mass distribution (fat vs lean) was determined by quantitative whole body NMR prior to dosing and at the end of dosing.

[3] = Stability in mouse plasma, peptides 10 uM (Example 15); format: in vitro ADME; details: mouse plasma 37° C., peptide 10 uM; for remaining at 0.25 h, 10 uM / remaining at 0.5 h, 10 uM / remaining at 1 h, 10 uM / remaining at 2 h, 10 uM / remaining at 3 h, 10 uM: pooled mouse plasma; for remaining at 0.25 h, 10 uM: 15 min, read-out: % Remaining at Each Time Point: 15 min; for remaining at 0.5 h, 10 uM: 30 min, read-out: % Remaining at Each Time Point: 30 min; for remaining at 1 h, 10 uM: 60 min, read-out: % Remaining at Each Time Point: 60 min; for remaining at 2 h, 10 uM: 120 min, read-out: % Remaining at Each Time Point: 120 min; for remaining at 3 h, 10 uM: 180 min, read-out: % Remaining at Each Time Point: 180 min
Procedure: (§1) Peptides (10 uM) were incubated in pooled mouse plasma at 37° C. and samples were removed and immediately analyzed for the concentration of intact peptide by LC/MS/MS over the course of 3 hours. The percent of peptide remaining in plasma at each time point was calculated relative to the initial peak area (Table 13).

[4] = Stability in mouse plasma, peptides 100 uM (Example 14); format: in vitro ADME; details: mouse plasma 37° C., peptide 100 uM; for remaining at 0.25 h, 100 uM / remaining at 0.5 h, 100 uM / remaining at 1 h, 100 uM / remaining at 2 h, 100 uM / remaining at 3 h, 100 uM: pooled mouse plasma; for remaining at 0.25 h, 100 uM: 15 min, read-out: % Remaining at Each Time Point: 15 min; for remaining at 0.5 h, 100 uM: 30 min, read-out: % Remaining at Each Time Point: 30 min; for remaining at 1 h, 100 uM: 60 min, read-out: % Remaining at Each Time Point: 60 min; for remaining at 2 h, 100 uM: 120 min, read-out: % Remaining at Each Time Point: 120 min; for remaining at 3 h, 100 uM: 180 min, read-out: % Remaining at Each Time Point: 180 min
Procedure: as §1, with “(100” for “(10”, “12).” for “13).”

| Compound | % Remaining at Each Time Point: 0 min [3] | remaining at 0.25 h, 10 uM [3] | remaining at 0.5 h, 10 uM [3] | remaining at 1 h, 10 uM [3] | remaining at 2 h, 10 uM [3] | remaining at 3 h, 10 uM [3] | % Remaining at Each Time Point: 0 min [4] | remaining at 0.25 h, 100 uM [4] | remaining at 0.5 h, 100 uM [4] | remaining at 1 h, 100 uM [4] | remaining at 2 h, 100 uM [4] | remaining at 3 h, 100 uM [4] | Free Fatty Acid Levels in 3T3-L1 Adipocytes Expressed as a Percent of Isoproterenol Control: Percent of Control Value [1] | Difference from Vehicle Control: Decrease from Baseline in Blood Glucose [2] | Difference from Vehicle Control: Decrease from Baseline in Body Weight (%) [2] | Difference from Vehicle Control: Decrease from Baseline in Fat Mass [2] |
| --- | --- | --- | --- | --- | --- | --- | --- | --- | --- | --- | --- | --- | --- | --- | --- | --- |
| CC[C@H](C)[C@H](NC(=O)[C@H](Cc1ccc(O)cc1)NC(=O)CNC(=O)[C@H](CCSC)NC(=O)[C@H](CCC(=O)O)NC(=O)[C@H](CCC(N)=O)NC(=O)[C@H](Cc1c[nH]c2ccccc12)NC(=O)[C@H](CCCNC(=N)N)NC(=O)[C@@H](N)CCSC)C(=O)N[C@@H](Cc1ccccc1)C(=O)N[C@@H](Cc1ccc(O)cc1)C(=O)N1CCC[C@H]1C(=O)N[C@@H](CCCNC(=N)N)C(=O)N[C@H](C)C(=O)N[C@@H](CC(C)C)C(=O)N[C@@H](CCCNC(=N)N)C(=O)O [compound 149] (HELM PEPTIDE1{M.R.W.Q.E.M.G.Y.I.F.Y.P.R.[dA].L.R}$$$$V2.0) | 100% | 59.3% | 36.1% | 11.1% | 0.98% | 0.28% |  |  |  |  |  |  | 38.6% | -11.4 mg/dL | −5.22% | -2.13 g |
| H-MRWQEEGYIFYPRKLR-OH [compound 172] | 100% | 59.4% | 33.6% | 6.43% | 0.44% | 0% |  |  |  |  |  |  | 54.2% | -31.5 mg/dL | −2.48% | -0.77 g |
| H-MRWQEMGYIAYPRKLR-OH [compound 15] |  |  |  |  |  |  | 100% | 19.5% | 18.8% | 21.8% | 6.63% | 0% | 67.9% |  |  |  |
| H-MRWQEMGYIFYARKLR-OH [compound 17] | 100% | 46% | 26.8% | 11.9% | 11.3% | 7.35% |  |  |  |  |  |  |  | -2.63 mg/dL | −2.87% | -0.65 g |

Further lines, with some results ahead:

| % Remaining at Each Time Point: 0 min [3] | remaining at 0.25 h, 10 uM [3] | remaining at 0.5 h, 10 uM [3] | remaining at 1 h, 10 uM [3] | remaining at 2 h, 10 uM [3] | remaining at 3 h, 10 uM [3] | % Remaining at Each Time Point: 0 min [4] | remaining at 0.25 h, 100 uM [4] | remaining at 0.5 h, 100 uM [4] | remaining at 1 h, 100 uM [4] | remaining at 2 h, 100 uM [4] | remaining at 3 h, 100 uM [4] | Compound | Free Fatty Acid Levels in 3T3-L1 Adipocytes Expressed as a Percent of Isoproterenol Control: Percent of Control Value [1] | Difference from Vehicle Control: Decrease from Baseline in Blood Glucose [2] | Difference from Vehicle Control: Decrease from Baseline in Body Weight (%) [2] | Difference from Vehicle Control: Decrease from Baseline in Fat Mass [2] |
| --- | --- | --- | --- | --- | --- | --- | --- | --- | --- | --- | --- | --- | --- | --- | --- | --- |
|  |  |  |  |  |  | 100% | 69.1% | 65.8% | 59.1% | 43.3% | 29.1% | Ac-MRWQEMGYIFYPR-NH2 [compound 61] | 92.9% |  |  |  |
|  |  |  |  |  |  | 100% | 17.5% | 19.3% | 21.4% | 10.9% | 6.89% | H-ARWQEMGYIFYPRKLR-OH [compound 6] | 58.6% |  |  |  |
| 100% | 98.8% | 96.8% | 89.5% | 84.3% | 80.7% |  |  |  |  |  |  | H-ERWQEAGYIAYPR-OH [compound 241] | 50.9% | -7.00 mg/dL | −1.49% | -0.34 g |
|  |  |  |  |  |  | 100% | 18.3% | 17.5% | 11.5% | 5.25% | 2.38% | H-MRWQEAGYIFYPRKLR-OH [compound 11] | 78.8% | -27.6 mg/dL | −8.81% | -5.85 g |
